Measurements: patent EP3685668B1, “COMPOSITION COMPRISING ACIBENZOLAR-S-METHYL AS EFFECTIVE INGREDIENT FOR CONTROLLING BURSAPHELENCHUS XYLOPHILUS DISEASE AND METHOD FOR CONTROLLING BURSAPHELENCHUS XYLOPHILUS USING SAME” (Industry Foundation of Chonnam National University, priority 2017, dated 2019)

Assays:
Heat shock 70 = experiment: qRT-PCR expression of induced resistance gene in pine tree callus; format: cell-based; conditions: 200 µg/mℓ, 24 hours
Method: (§1) For in vitro analysis of induced resistance, the expression of PR genes and other plant defense-related genes was determined, which are evolved in various defense mechanisms including induced resistance. The primers of sixteen induced resistance-related genes of pine tree used in this invention were listed in the below and elongation factor_1 alpha were used as a reference gene. [Table 4] The primer list of defense resistance-related genes
(§2) After the treatment with 200 µg / mℓ of candidates of the selected induced resistance material, expression of the induced resistance-related gene in pine callus was determined by qRT-PCR using the primer pairs of defense resistance-related genes in Table 4. As a candidate group of an induced resistance material in pine tree, acibenzolar-S-methyl (ASM), TDL (Tiadinil), ITL (Isotianil), PBZ (Probenzole), AZO (Azoxystrobin), VMA (Validamycin A), MeJA (Methyl jasmonate), BABA (DL-3-aminobutyric acid), 2,3-BDO (2,3-Butanediol), GABA (r-Aminobutyric acid), glucan (Glucan), ER (Ergosterol), and AZA (Azelaic acid) were used. For the in vitro analysis of the expression of induced resistance gene in pine callus, the selected induced resistance materials were applied with 500 µℓ of LM liquid medium on a surface of pine tree callus (100 mg) in 12-well microplate to give final concentration of 200 µg/mℓ. Then, the callus surface was sufficiently reacted for 24 hours with the candidate of pine tree induced resistance material by shaking at 50 rpm in a 25 °C shaking incubator under dark condition. RNAs were extracted from the callus after completion of the reaction with an induced resistance material, followed by synthesis of cDNAs. Then, by carrying out qRT-PCR, the expression of induced resistance genes was determined. [Table 5] Expression of induced resistance gene in pine tree callus by TDL, PBZ, ASM, ITL, AZO, VMA, glucan, and AZA
(§3) Based on the results of assay using young plants and gene expression by selected induce resistance materials, it seemed that acibenzolar-S-methyl had the most excellent effect. Thus, the following tests were carried out using acibenzolar-S-methyl only. Expression of the induced resistance genes at different culture time after the chemical treatment was examined. For the in vitro assay, LM medium containing pine tree callus was treated with acibenzolar-S-methyl at concentration of 200 µg / mℓ, followed by reaction for 1 day, 7 days, or 14 days in a 25°C shaking incubator under dark condition. RNAs were extracted from the callus after the reaction followed by synthesis of cDNAs. Then, by carrying out qRT-PCR, the expression of the induced resistance genes was determined. Depending on reaction time after the treatment, i.e., after 1 day, 7 days, or 14 days, the expression of the obtained induced resistance genes was examined. As a result of the in vitro callus assay depending on reaction time after the treatment with acibenzolar-S-methyl, the expression of the induced resistance-related genes is the highest at 1 day after the treatment with acibenzolar-S-methyl and gradually diminished over time, as it is shown in Table 7. In this regard, it is contemplated that the expression of genes acquired by acibenzolar-S-methyl is not maintained in highly expressed state until the pathogen invasion and just memorized with at minimum level so that the energy consumption by plant can be efficiently managed. [Table 7] Expression of induced resistance gene in pine tree callus by acibenzolar-S-methyl depending on reaction time
(§4) To have an in vitro assay according to different methods of treatment with acibenzolar-S-methyl, two separate treatment methods, i.e., surface treatment (spraying treatment) of pine tree callus and direct application of the induced resistance material to an LM medium containing pine tree callus, were performed. […]

PR_9 family = experiment: as above; format: cell-based; conditions: 200 µg/mℓ, 24 hours
Method: as §1, §2, §3, §4

Antipeptide = experiment: as above; format: cell-based; conditions: 200 µg/mℓ, 24 hours
Method: as §1, §2, §3, §4

Hydroxyproline = experiment: as above; format: cell-based; conditions: 200 µg/mℓ, 24 hours
Method: as §1, §2, §3, §4

PR_2 family = experiment: as above; format: cell-based; conditions: 200 µg/mℓ, 24 hours
Method: as §1, §2, §3, §4

Xyloglucan = experiment: as above; format: cell-based; conditions: 200 µg/mℓ, 24 hours
Method: as §1, §2, §3, §4

PR_3 family class 4 = experiment: as above; format: cell-based; conditions: 200 µg/mℓ, 24 hours
Method: as §1, §2, §3, §4

PR_3 family class 1 = experiment: as above; format: cell-based; conditions: 200 µg/mℓ, 24 hours
Method: as §1, §2, §3, §4

Metallothionein = experiment: as above; format: cell-based; conditions: 200 µg/mℓ, 24 hours
Method: as §1, §2, §3, §4

PR_4 family = experiment: as above; format: cell-based; conditions: 200 µg/mℓ, 24 hours
Method: as §1, §2, §3, §4

[1] = test system: Bursaphelenchus xylophilus; experiment: Occurrence of pine wilt disease after trunk injection of induced resistance candidate materials, in vivo test in young red pine trees; conditions: red pine tree (Pinus densiflora), 30 days after inoculation; for Occurrence rate of pine wilt disease: Number of pine trees showing wilt symptoms / Number of pine trees used for the test: trunk injection 100 µℓ per tree; for Number of pine trees showing wilt symptoms only at growing points of a stem: trunk injection
Method: By using the 15 types of an induced resistance elicitors which have been known to induce the plant resistance against various diseases as candidates, their controlling effect against pine wilt disease was examined. The control efficacy of candidates against pine wilt disease was analyzed according to an in vivo test using red pine tree (Pinus densiflora) which was 2-year old young pine trees (diameter of 5.5 mm or so, and height of about 35 mm).
As a candidate group of an induced resistance material, two kinds of acibenzolar-S-methyl (ASM), TDL (Tiadinil), ITL (Isotianil), PBZ (Probenzole), AZO (Azoxystrobin), VMA (Validamycin A), MeJA (Methyl jasmonate), BABA (DL-3-aminobutyric acid), 2,3-BDO (2,3-Butanediol), SA (salicyclic acid), GABA (r-Aminobutyric acid), glucan (Glucan), ER (Ergosterol), and AZA (Azelaic acid) were used. Only the use of acibenzolar-S-methyl is according to the invention. Injection of the chemicals was carried out by trunk injection method, i.e., at an angle of 45°, a borehole was created by using an electric drill with thickness of 1.5 mm on a pine stem part that is 5 to 10 cm above the soil surface, a tip (200 µℓ) was inserted to the hole, and, after dissolving the candidate material at concentration level of 200, 20, or 2 µg/mℓ in each solvent, the solution was injected in an amount of 100 µℓ per pine tree. After the injection of the chemical agent, the end part of the tip was sealed with parafilm.
The pine tree wilt nematodes (Bursaphelenchus xylophilus, National Institute of Forest Science (NIFoS), South Korea) was incubated at 25°C by feeding them with Botrytis cinerea, which have been cultured on a potato dextrose agar (PDA) medium, and after one week incubation, they were collected by Baermann funnel method and were adjusted to the level of 20,000 worms/mℓ by examining the number of the worms under an optical microscope. One week after the chemical treatment, the inoculation of the pine tree wilt nematodes was carried out by tree barking inoculation of 100 µℓ, i.e., 2,000 worms, per tree, and the result was determined 30 days after the inoculation. […] [Table 1] Occurrence rate of pine wilt disease in candidate group of induced resistance materials

Compound: CC(N)CC(=O)O (racemic) [BABA, DL-3-aminobutyric acid]
- Expression of induced resistance gene, Heat shock 70 (Heat shock 70): 0.59
- Expression of induced resistance gene, PR_9 family (PR_9 family): 0.43
- Expression of induced resistance gene, Antipeptide (Antipeptide): 0.4
- Expression of induced resistance gene, Hydroxyproline (Hydroxyproline): 0.36
- Expression of induced resistance gene, PR_2 family (PR_2 family): 0.43
- Expression of induced resistance gene, Xyloglucan (Xyloglucan): 0.53
- Expression of induced resistance gene, PR_3 family class 4 (PR_3 family class 4): 0.51
- Expression of induced resistance gene, PR_3 family class 1 (PR_3 family class 1): 0.81
- Expression of induced resistance gene, Metallothionein (Metallothionein): 1.17
- Expression of induced resistance gene, PR_4 family (PR_4 family): 7.01
- Occurrence rate of pine wilt disease: Number of pine trees showing wilt symptoms / Number of pine trees used for the test ([1]; 2 µg/mℓ): 2/3
- Occurrence rate of pine wilt disease: Number of pine trees showing wilt symptoms / Number of pine trees used for the test ([1]; 20 µg/mℓ): 3/3
- Occurrence rate of pine wilt disease: Number of pine trees showing wilt symptoms / Number of pine trees used for the test ([1]; 200 µg/mℓ): 2/3
- Number of pine trees showing wilt symptoms only at growing points of a stem ([1]; 2 µg/mℓ): 2
- Number of pine trees showing wilt symptoms only at growing points of a stem ([1]; 20 µg/mℓ): 2
- Number of pine trees showing wilt symptoms only at growing points of a stem ([1]; 200 µg/mℓ): 2

Compound: CC(O)C(C)O (centres unmarked) [2,3-BDO, 2,3-Butanediol]
- Expression of induced resistance gene, Heat shock 70 (Heat shock 70): 1.29
- Expression of induced resistance gene, PR_9 family (PR_9 family): 1.22
- Expression of induced resistance gene, Antipeptide (Antipeptide): 1.31
- Expression of induced resistance gene, Hydroxyproline (Hydroxyproline): 0.83
- Expression of induced resistance gene, PR_2 family (PR_2 family): 1.26
- Expression of induced resistance gene, Xyloglucan (Xyloglucan): 1.13
- Expression of induced resistance gene, PR_3 family class 4 (PR_3 family class 4): 0.33
- Expression of induced resistance gene, PR_3 family class 1 (PR_3 family class 1): 2.78
- Expression of induced resistance gene, Metallothionein (Metallothionein): 2.53
- Expression of induced resistance gene, PR_4 family (PR_4 family): 1.41
- Occurrence rate of pine wilt disease: Number of pine trees showing wilt symptoms / Number of pine trees used for the test ([1]; 2 µg/mℓ): 2/3
- Occurrence rate of pine wilt disease: Number of pine trees showing wilt symptoms / Number of pine trees used for the test ([1]; 20 µg/mℓ): 3/3
- Occurrence rate of pine wilt disease: Number of pine trees showing wilt symptoms / Number of pine trees used for the test ([1]; 200 µg/mℓ): 1/3
- Number of pine trees showing wilt symptoms only at growing points of a stem ([1]; 2 µg/mℓ): 2
- Number of pine trees showing wilt symptoms only at growing points of a stem ([1]; 20 µg/mℓ): 1
- Number of pine trees showing wilt symptoms only at growing points of a stem ([1]; 200 µg/mℓ): 1
